Data from US8901309B2, “Fused triazoles for the treatment or prophylaxis of mild cognitive impairment” (Takeda Pharmaceutical Company Limited, priority 2010, dated 2014).

Each molecule was assayed on Aβ42 in hippocampi of C57BL/6J mice (assay: Hippocampal soluble Aβ42 ELISA in mice after oral administration). Conditions: 10 mg/kg orally, hippocampi isolated 3 hours after administration, soluble Aβ42 by ELISA, 10 mg/kg.
Assay type: in vivo, mouse
Method: Measurement of Amyloid β Production Inhibition Rate Using Primary Nerve Cell
C57BL/6J mice (7-10 weeks old) were purchased from CLEA Japan Inc. Mice were housed in groups and kept on a 12h-light; 12h-dark schedule. All mice were given ad libitum access to food and water.
Each test compound was reconstituted in solubilization buffer ([DMSO (Wako)]: [10% Cremophor (Nakarai)+30% polyethylene glycol 400 (Wako)+60% 2 mol/L Citrate buffer (Wako)]=1:9) and orally administrated at 10 mg/kg.
Hippocampi was isolated from animals, 3 hours after test compounds were orally administrated. Hippocampi were homogenized in ice-cold Tris-extraction buffer (50 mmol/L Tris-HCl, pH 7.2, 200 mmol/L sodium chloride, 2% protease-free bovine serum albumin, and 0.01% sodium merthiolate) containing protease inhibitor cocktails (Roche, Switzerland). After centrifugation at 15,000 rpm for 15 minutes, the supernatants were subjected to two-site sandwich ELISA to measure amount of soluble Aβ. Aβ42 was quantitated by two-site sandwich ELISA using BNT77, which recognizes Aβ11-28, as a capture antibody and BC05-HRP as a detector antibody, respectively.
For `COc1nc(-c2nnc3n2CCCC3(Oc2ccc(F)c(C(F)(F)F)c2)C(C)(C)O)ccc1-n1cnc(C)c1` (stereo not drawn) [Example 2, 2-{8-[4-fluoro-3-(trifluoromethyl)phenoxy]-3-[6-methoxy-5-(4-methyl-1H-imidazol-1-yl)pyridin-2-yl]-5,6,7,8-tetrahydro[1,2,4]triazolo[4,3-a]pyridin-8-yl}propan-2-ol], the “Aβ42 production inhibitory activity (% inhibition)” value was 48 % inhibition. For `COc1cc(-c2nnc3n2CCCC3(Oc2ccc(F)c(F)c2)C(C)(C)O)ccc1-c1cnc(C)o1` (stereo not drawn) [Example 92, 2-{8-(3,4-difluorophenoxy)-3-[3-methoxy-4-(2-methyl-1,3-oxazol-5-yl)phenyl]-5,6,7,8-tetrahydro[1,2,4]triazolo[4,3-a]pyridin-8-yl}propan-2-ol], the “Aβ42 production inhibitory activity (% inhibition)” value was 32 % inhibition. With `COc1cc(-c2nnc3n2CCCC3(Oc2ccc(C(F)(F)F)cc2)C(C)(C)O)ccc1-c1cnc(C)o1` (stereo not drawn) [Example 104, 2-{3-[3-methoxy-4-(2-methyl-1,3-oxazol-5-yl)phenyl]-8-[4-(trifluoromethyl)phenoxy]-5,6,7,8-tetrahydro[1,2,4]triazolo[4,3-a]pyridin-8-yl}propan-2-ol] the “Aβ42 production inhibitory activity (% inhibition)” value was 36 % inhibition. With `COc1cc(-c2nnc3n2CCCC3(Oc2cccc(C(F)(F)F)c2)C(C)(C)O)ccc1-c1cnc(C)o1` (stereo not drawn) [Example 130, 2-{3-[3-methoxy-4-(2-methyl-1,3-oxazol-5-yl)phenyl]-8-[3-(trifluoromethyl)phenoxy]-5,6,7,8-tetrahydro[1,2,4]triazolo[4,3-a]pyridin-8-yl}propan-2-ol] the “Aβ42 production inhibitory activity (% inhibition)” value was 59 % inhibition. `COc1cc(-c2nnc3n2CCCC3(Oc2ccc(C(F)(F)F)cc2)C(C)(C)O)ccc1-c1cnc(C)o1` (stereo not drawn) [Example 132, 2-{3-[3-methoxy-4-(2-methyl-1,3-oxazol-5-yl)phenyl]-8-[4-(trifluoromethyl)phenoxy]-5,6,7,8-tetrahydro[1,2,4]triazolo[4,3-a]pyridin-8-yl}propan-2-ol] was tested, and the “Aβ42 production inhibitory activity (% inhibition)” value was 58 % inhibition. `COc1cc(-c2nnc3n2CCCC3(Oc2cc(F)cc(F)c2)C(C)(C)O)ccc1-c1cnc(C)o1` (stereo not drawn) [Example 155, 2-{8-(3,5-difluorophenoxy)-3-[3-methoxy-4-(2-methyl-1,3-oxazol-5-yl)phenyl]-5,6,7,8-tetrahydro[1,2,4]triazolo[4,3-a]pyridin-8-yl}propan-2-ol] was tested, and the “Aβ42 production inhibitory activity (% inhibition)” value was 56 % inhibition.

Same assay, conditions: Mus musculus, po, 3 h, 10 mg/kg orally, hippocampi isolated 3 hours after administration, soluble Aβ42 by ELISA, read-out: Aβ42 production inhibitory activity (% inhibition)
Molecule `COc1nc(-c2nnc3n2CCCC3(Oc2ccc(Cl)c(F)c2)C(C)(C)O)ccc1-n1cnc(C)c1` (stereo not drawn) [Example 1, 2-{8-(4-chloro-3-fluorophenoxy)-3-[6-methoxy-5-(4-methyl-1H-imidazol-1-yl)pyridin-2-yl]-5,6,7,8-tetrahydro[1,2,4]triazolo[4,3-a]pyridin-8-yl}propan-2-ol] has an inhibition in vivo at 10 mg/kg of 40%. With `COc1cc(-c2nnc3n2CCCC3(CC2CC2)c2ccc(F)c(F)c2)ccc1-c1cnc(C)o1` (stereo not drawn) [Example 21, optically active 8-(cyclopropylmethyl)-8-(3,4-difluorophenyl)-3-[3-methoxy-4-(2-methyl-1,3-oxazol-5-yl)phenyl]-5,6,7,8-tetrahydro[1,2,4]triazolo[4,3-a]pyridine] the inhibition in vivo at 10 mg/kg was 39%. `COc1cc(-c2nnc3n2CCCC3(Oc2cc(F)c(F)c(F)c2)C(C)(C)O)ccc1-c1cnc(C)o1` (stereo not drawn) [Example 99, 2-{3-[3-methoxy-4-(2-methyl-1,3-oxazol-5-yl)phenyl]-8-(3,4,5-trifluorophenoxy)-5,6,7,8-tetrahydro[1,2,4]triazolo[4,3-a]pyridin-8-yl}propan-2-ol] showed an inhibition in vivo at 10 mg/kg of 34%. With `COc1cc(-c2nnc3n2CCCC3(Oc2cccc(C(F)(F)F)c2)C(C)(C)O)ccc1-c1cnc(C)o1` (stereo not drawn) [Example 103, 2-{3-[3-methoxy-4-(2-methyl-1,3-oxazol-5-yl)phenyl]-8-[3-(trifluoromethyl)phenoxy]-5,6,7,8-tetrahydro[1,2,4]triazolo[4,3-a]pyridin-8-yl}propan-2-ol] the inhibition in vivo at 10 mg/kg was 42%. For `COc1cc(-c2nnc3n2CCCC3(Oc2ccc(Cl)c(F)c2)C(C)(C)O)ccc1-c1cnc(C)o1` (stereo not drawn) [Example 111, 2-{8-(4-chloro-3-fluorophenoxy)-3-[3-methoxy-4-(2-methyl-1,3-oxazol-5-yl)phenyl]-5,6,7,8-tetrahydro[1,2,4]triazolo[4,3-a]pyridin-8-yl}propan-2-ol], the inhibition in vivo at 10 mg/kg was 46%. In the case of `CCC(O)(CC)C1(Oc2ccc(Cl)c(F)c2)CCCn2c(-c3ccc(-c4cnc(C)o4)c(OC)c3)nnc21` (stereo not drawn) [Example 120, 3-{8-(4-chloro-3-fluorophenoxy)-3-[3-methoxy-4-(2-methyl-1,3-oxazol-5-yl)phenyl]-5,6,7,8-tetrahydro[1,2,4]triazolo[4,3-a]pyridin-8-yl}pentan-3-ol], the inhibition in vivo at 10 mg/kg is reported as 21%. `COc1cc(-c2nnc3n2CCC[C@]3(Oc2cc(F)c(F)c(F)c2)C(C)(C)O)ccc1-c1cnc(C)o1` [Example 122, 2-{(8R)-3-[3-methoxy-4-(2-methyl-1,3-oxazol-5-yl)phenyl]-8-(3,4,5-trifluorophenoxy)-5,6,7,8-tetrahydro[1,2,4]triazolo[4,3-a]pyridin-8-yl}propan-2-ol] was tested, and the inhibition in vivo at 10 mg/kg was 54%. `COc1cc(-c2nnc3n2CCCC3(Oc2ccc(F)c(F)c2)C(C)(C)O)ccc1-c1cnc(C)o1` (stereo not drawn) [Example 124, 2-{8-(3,4-difluorophenoxy)-3-[3-methoxy-4-(2-methyl-1,3-oxazol-5-yl)phenyl]-5,6,7,8-tetrahydro[1,2,4]triazolo[4,3-a]pyridin-8-yl}propan-2-ol] gave an inhibition in vivo at 10 mg/kg of 41%. `COc1cc(-c2nnc3n2CCCC3(COc2ccc(Cl)cc2)C(C)(C)O)ccc1-c1cnc(C)o1` (stereo not drawn) [Example 127, 2-{8-[(4-chlorophenoxy)methyl]-3-[3-methoxy-4-(2-methyl-1,3-oxazol-5-yl)phenyl]-5,6,7,8-tetrahydro[1,2,4]triazolo[4,3-a]pyridin-8-yl}propan-2-ol] was tested, and the inhibition in vivo at 10 mg/kg was 21%. `COc1nc(-c2nnc3n2CCCC3(Oc2cc(F)c(F)c(F)c2)C(C)(C)O)ccc1-n1cnc(C)c1` (stereo not drawn) [Example 134, 2-{3-[6-methoxy-5-(4-methyl-1H-imidazol-1-yl)pyridin-2-yl]-8-(3,4,5-trifluorophenoxy)-5,6,7,8-tetrahydro[1,2,4]triazolo[4,3-a]pyridin-8-yl}propan-2-ol] showed an inhibition in vivo at 10 mg/kg of 31%. With `COc1cc(-c2nnc3n2CCCC3(Oc2ccc(Cl)c(C(F)(F)F)c2)C(C)(C)O)ccc1-n1cnc(C)n1` (stereo not drawn) [Example 139, 2-{8-[4-chloro-3-(trifluoromethyl)phenoxy]-3-[3-methoxy-4-(3-methyl-1H-1,2,4-triazol-1-yl)phenyl]-5,6,7,8-tetrahydro[1,2,4]triazolo[4,3-a]pyridin-8-yl}propan-2-ol] the inhibition in vivo at 10 mg/kg was 22%. `COc1cc(-c2nnc3n2CCCC3(Oc2cc(F)cc(F)c2)C(C)(C)O)ccc1-c1cnc(C)o1` (stereo not drawn) [Example 141, 2-{8-(3,5-difluorophenoxy)-3-[3-methoxy-4-(2-methyl-1,3-oxazol-5-yl)phenyl]-5,6,7,8-tetrahydro[1,2,4]triazolo[4,3-a]pyridin-8-yl}propan-2-ol] gave an inhibition in vivo at 10 mg/kg of 46%. `COc1cc(-c2nnc3n2CCCC3(Oc2cc(F)c(F)c(F)c2)C(C)(C)O)ccc1-c1cnn(C)c1` (stereo not drawn) [Example 144, 2-{3-[3-methoxy-4-(1-methyl-1H-pyrazol-4-yl)phenyl]-8-(3,4,5-trifluorophenoxy)-5,6,7,8-tetrahydro[1,2,4]triazolo[4,3-a]pyridin-8-yl}propan-2-ol] gave an inhibition in vivo at 10 mg/kg of 31%. `COc1nc(-c2nnc3n2CCC[C@]3(Oc2cc(F)c(F)c(F)c2)C(C)(C)O)ccc1-n1cnc(C)c1` [Example 152, 2-{(8R)-3-[6-methoxy-5-(4-methyl-1H-imidazol-1-yl)pyridin-2-yl]-8-(3,4,5-trifluorophenoxy)-5,6,7,8-tetrahydro[1,2,4]triazolo[4,3-a]pyridin-8-yl}propan-2-ol] gave an inhibition in vivo at 10 mg/kg of 57%. `COc1nc(-c2nnc3n2CCCC3(Oc2ccc(F)c(C(F)(F)F)c2)C(C)(C)O)ccc1-n1cnc(C)c1` (stereo not drawn) [Example 157, 2-{8-[4-fluoro-3-(trifluoromethyl)phenoxy]-3-[6-methoxy-5-(4-methyl-1H-imidazol-1-yl)pyridin-2-yl]-5,6,7,8-tetrahydro[1,2,4]triazolo[4,3-a]pyridin-8-yl}propan-2-ol] gave an inhibition in vivo at 10 mg/kg of 61%. Molecule `COc1cc(-c2nnc3n2CCCC3(Oc2cc(F)c(F)c(F)c2)C(C)(C)O)c(F)cc1-c1cnc(C)o1` (stereo not drawn) [Example 162, 2-{3-[2-fluoro-5-methoxy-4-(2-methyl-1,3-oxazol-5-yl)phenyl]-8-(3,4,5-trifluorophenoxy)-5,6,7,8-tetrahydro[1,2,4]triazolo[4,3-a]pyridin-8-yl}propan-2-ol] has an inhibition in vivo at 10 mg/kg of 26%. For `COc1nc(-c2nnc3n2CCCC3(Oc2cc(F)c(F)c(F)c2)C(C)(C)O)ccc1-c1cnc(C)o1` (stereo not drawn) [Example 172, 2-{3-[6-methoxy-5-(2-methyl-1,3-oxazol-5-yl)pyridin-2-yl]-8-(3,4,5-trifluorophenoxy)-5,6,7,8-tetrahydro[1,2,4]triazolo[4,3-a]pyridin-8-yl}propan-2-ol], the inhibition in vivo at 10 mg/kg was 35%. In the case of `COc1cc(-c2nnn3c2CCCC3(Oc2cc(F)c(F)c(F)c2)C(C)(C)O)ccc1-c1cnc(C)o1` (stereo not drawn) [Example 186, 2-{3-[3-methoxy-4-(2-methyl-1,3-oxazol-5-yl)phenyl]-7-(3,4,5-trifluorophenoxy)-4,5,6,7-tetrahydro[1,2,3]triazolo[1,5-a]pyridin-7-yl}propan-2-ol], the inhibition in vivo at 10 mg/kg is reported as 22%.
